# According to PubChem BioAssay AID1963980 (Molecular Pharmacology Branch, DTP, NCI, 2024):
# System: 475296-252-R-J1-PDC spheroid viability
# Assay: Anticancer human tumor 475296-252-R-J1-PDC patient-derived rectal carcinoma cell line growth inhibition [PI3K]
# Settings: spheroids with HUVEC and MSC; for IC50: curve of first compound; for viability, T/C: stronger effect = lower value
# Procedure, shortened: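 We assembled tumor spheroids that included a stromal compartment of HUVEC and MSCs, then exposed them to targeted agents alone and together with PI3K pathway inhibitors. Concentration series descended by half-log from clinically achievable Cmax levels. Viability served as the endpoint.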
# [1] = second compound 0.0316 µM, first compound 0.0316 µM
# [2] = second compound 0.0316 µM, first compound 0.1 µM
# [3] = second compound 0.0316 µM, first compound 0.316 µM
# [4] = second compound 0.0316 µM, first compound 1 µM
# [5] = second compound 0.0316 µM, first compound 3.16 µM
# [6] = second compound 0.0316 µM, first compound 10 µM
# [7] = second compound 0.1 µM, first compound 0.0316 µM
# [8] = second compound 0.1 µM, first compound 0.1 µM
# [9] = second compound 0.1 µM, first compound 0.316 µM
# [10] = second compound 0.1 µM, first compound 1 µM
# [11] = second compound 0.1 µM, first compound 3.16 µM
# [12] = second compound 0.1 µM, first compound 10 µM
# [13] = second compound 0.316 µM, first compound 0.0316 µM
# [14] = second compound 0.316 µM, first compound 0.1 µM
# [15] = second compound 0.316 µM, first compound 0.316 µM
# [16] = second compound 0.316 µM, first compound 1 µM
# [17] = second compound 0.316 µM, first compound 3.16 µM
# [18] = second compound 0.316 µM, first compound 10 µM
# [19] = second compound 1 µM, first compound 0.0316 µM
# [20] = second compound 1 µM, first compound 0.1 µM
# [21] = second compound 1 µM, first compound 0.316 µM
# [22] = second compound 1 µM, first compound 1 µM
# [23] = second compound 1 µM, first compound 3.16 µM
# [24] = second compound 1 µM, first compound 10 µM
# [25] = second compound 3.16 µM, first compound 0.0316 µM
# [26] = second compound 3.16 µM, first compound 0.1 µM
# [27] = second compound 3.16 µM, first compound 0.316 µM
# [28] = second compound 3.16 µM, first compound 1 µM
# [29] = second compound 3.16 µM, first compound 3.16 µM
# [30] = second compound 3.16 µM, first compound 10 µM
# [31] = second compound 10 µM, first compound 0.0316 µM
# [32] = second compound 10 µM, first compound 0.1 µM
# [33] = second compound 10 µM, first compound 0.316 µM
# [34] = second compound 10 µM, first compound 1 µM
# [35] = second compound 10 µM, first compound 3.16 µM
# [36] = second compound 10 µM, first compound 10 µM
# 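Note: spheroids exposed to agents for seven days before readout.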
compound,measurement,setting,value
CNC(=O)c1ccc(N2C(=S)N(c3ccc(C#N)c(C(F)(F)F)c3)C(=O)C2(C)C)cc1F + Cc1nc(NC(=O)N2CCCC2C(N)=O)sc1-c1ccnc(C(C)(C)C(F)(F)F)c1,IC50,second compound 0.0316 µM,> 10 µM
same,IC50,second compound 0.1 µM,> 10 µM
same,IC50,second compound 0.316 µM,> 10 µM
same,IC50,second compound 1 µM,> 10 µM
same,IC50,second compound 3.16 µM,> 10 µM
same,IC50,second compound 10 µM,> 10 µM
same,"viability, T/C",[1],101%
same,"viability, T/C",[2],88.1%
same,"viability, T/C",[3],98.8%
same,"viability, T/C",[4],87.7%
same,"viability, T/C",[5],95.7%
same,"viability, T/C",[6],95.2%
same,"viability, T/C",[7],102%
same,"viability, T/C",[8],91.8%
same,"viability, T/C",[9],99.6%
same,"viability, T/C",[10],86.6%
same,"viability, T/C",[11],111%
same,"viability, T/C",[12],114%
same,"viability, T/C",[13],92.2%
same,"viability, T/C",[14],101%
same,"viability, T/C",[15],86.1%
same,"viability, T/C",[16],104%
same,"viability, T/C",[17],101%
same,"viability, T/C",[18],108%
same,"viability, T/C",[19],90.5%
same,"viability, T/C",[20],104%
same,"viability, T/C",[21],95.6%
same,"viability, T/C",[22],102%
same,"viability, T/C",[23],89.8%
same,"viability, T/C",[24],109%
same,"viability, T/C",[25],81.1%
same,"viability, T/C",[26],104%
same,"viability, T/C",[27],92.3%
same,"viability, T/C",[28],98.1%
same,"viability, T/C",[29],108%
same,"viability, T/C",[30],97.5%
same,"viability, T/C",[31],80.8%
same,"viability, T/C",[32],89.5%
same,"viability, T/C",[33],104%
same,"viability, T/C",[34],88%
same,"viability, T/C",[35],98.9%
same,"viability, T/C",[36],90.7%
CC1(C)CCC(CN2CCN(c3ccc(C(=O)NS(=O)(=O)c4ccc(NCC5CCOCC5)c([N+](=O)[O-])c4)c(Oc4cnc5[nH]ccc5c4)c3)CC2)=C(c2ccc(Cl)cc2)C1 + Cc1nc(NC(=O)N2CCCC2C(N)=O)sc1-c1ccnc(C(C)(C)C(F)(F)F)c1,IC50,second compound 0.0316 µM,> 10 µM
same,IC50,second compound 0.1 µM,> 10 µM
same,IC50,second compound 0.316 µM,> 10 µM
same,IC50,second compound 1 µM,> 10 µM
same,IC50,second compound 3.16 µM,> 10 µM
same,IC50,second compound 10 µM,> 10 µM
same,"viability, T/C",[1],107%
same,"viability, T/C",[2],90.1%
same,"viability, T/C",[3],95.3%
same,"viability, T/C",[4],87.2%
same,"viability, T/C",[5],95.7%
same,"viability, T/C",[6],62.5%
same,"viability, T/C",[7],99.3%
same,"viability, T/C",[8],85.6%
same,"viability, T/C",[9],98.9%
same,"viability, T/C",[10],93%
same,"viability, T/C",[11],94.2%
same,"viability, T/C",[12],63.5%
same,"viability, T/C",[13],99.7%
same,"viability, T/C",[14],97.5%
same,"viability, T/C",[15],89.9%
same,"viability, T/C",[16],84.5%
same,"viability, T/C",[17],84.2%
same,"viability, T/C",[18],69%
same,"viability, T/C",[19],90.8%
same,"viability, T/C",[20],93.2%
same,"viability, T/C",[21],97.1%
same,"viability, T/C",[22],93.3%
same,"viability, T/C",[23],88.3%
same,"viability, T/C",[24],73.3%
same,"viability, T/C",[25],83.4%
same,"viability, T/C",[26],82%
same,"viability, T/C",[27],95.5%
same,"viability, T/C",[28],90.5%
same,"viability, T/C",[29],87.5%
same,"viability, T/C",[30],63.3%
same,"viability, T/C",[31],86.5%
same,"viability, T/C",[32],87.6%
same,"viability, T/C",[33],89.4%
same,"viability, T/C",[34],89%
same,"viability, T/C",[35],87.3%
same,"viability, T/C",[36],56.7%
